Source: the CheMixHub ionic liquid set
± gives the uncertainty stated by the source.

Test: xn = mol fraction of the nth substance listed

CC(C)O + CC[n+]1ccn(CCOC)c1.N#C[S-]
100 kPa, x2 = 0
Settings	viscosity [mPa·s]
288.15 K	2.83 ± 0.15
293.15 K	2.42 ± 0.13
298.15 K	2.07 ± 0.11
303.15 K	1.79 ± 0.098
308.15 K	1.552 ± 0.085
313.15 K	1.352 ± 0.074
318.15 K	1.183 ± 0.065

CCCCO + CC[n+]1ccn(CCOC)c1.N#C[S-]
100 kPa, x2 = 0
Settings	viscosity [mPa·s]
288.15 K	3.36 ± 0.18
293.15 K	2.94 ± 0.16
298.15 K	2.58 ± 0.14
303.15 K	2.27 ± 0.12
308.15 K	2.01 ± 0.11
313.15 K	1.78 ± 0.097
318.15 K	1.585 ± 0.087

CC(C)O + CC[n+]1ccn(CCOC)c1.O=S(=O)([O-])C(F)(F)F
101 kPa, x2 = 0
Settings	viscosity [mPa·s]
288.15 K	2.806 ± 0.06
293.15 K	2.397 ± 0.051
298.15 K	2.059 ± 0.044
303.15 K	1.777 ± 0.038
308.15 K	1.542 ± 0.033
313.15 K	1.344 ± 0.029
318.15 K	1.176 ± 0.025

CCCCCCCC[n+]1ccn(C)c1.F[P-](F)(F)(F)(F)F + CN(C)C=O
viscosity [mPa·s], 101 kPa
Settings	293.15 K	303.15 K	313.15 K	323.15 K	333.15 K	343.15 K	353.15 K	363.15 K
x1 = 0.002835	0.969 ± 0.025	0.865 ± 0.024	0.776 ± 0.024	0.705 ± 0.022	0.644 ± 0.02	0.591 ± 0.014	0.546 ± 0.016	0.505 ± 0.014
x1 = 0.00569	0.994 ± 0.023	0.887 ± 0.02	0.798 ± 0.018	0.723 ± 0.017	0.659 ± 0.015	0.604 ± 0.014	0.556 ± 0.013	0.514 ± 0.012
x1 = 0.01089	1.044 ± 0.024	0.929 ± 0.021	0.838 ± 0.019	0.754 ± 0.017	0.686 ± 0.016	0.628 ± 0.014	0.578 ± 0.013	0.533 ± 0.012
x1 = 0.01648	1.097 ± 0.025	0.973 ± 0.022	0.879 ± 0.02	0.786 ± 0.018	0.714 ± 0.016	0.652 ± 0.015	0.599 ± 0.014	0.552 ± 0.013
x1 = 0.02114	1.144 ± 0.026	1.013 ± 0.023	0.916 ± 0.021	0.815 ± 0.018	0.739 ± 0.017	0.674 ± 0.015	0.617 ± 0.014	0.569 ± 0.013
x1 = 0.02677	1.201 ± 0.027	1.059 ± 0.024	0.961 ± 0.022	0.848 ± 0.019	0.768 ± 0.018	0.699 ± 0.016	0.639 ± 0.015	0.588 ± 0.014

CCCC[n+]1ccn(C)c1.[Cl-] + CN(C)C=O
101 kPa
Settings	electrical conductivity [S/m]	viscosity [mPa·s]
293.15 K, x2 = 0.9	–	3.4 ± 1.5
298.15 K, x1 = 0.0172	–	0.98 ± 0.11
298.15 K, x2 = 0.5541	0.322 ± 0.006	41.1 ± 6.3
298.15 K, x2 = 0.975	0.574 ± 0.011	0.96 ± 0.27
303.15 K, x2 = 0.5056	–	52.3 ± 2.6
303.15 K, x2 = 0.6034	–	21.3 ± 3.3
303.15 K, x2 = 0.7982	–	4.15 ± 0.74
303.15 K, x2 = 0.9503	–	1.14 ± 0.29
308.15 K, x1 = 0.0086	–	0.82 ± 0.1
308.15 K, x2 = 0.8014	–	3.51 ± 0.65
308.15 K, x2 = 0.8999	–	1.53 ± 0.35
308.15 K, x2 = 0.974	–	0.94 ± 0.11

CCCC[n+]1ccn(C)c1.O=S(=O)([O-])C(F)(F)F + CN(C)c1ccccc1
Settings	viscosity [mPa·s]
308.15 K, 100 kPa, x2 = 0	52.2 ± 2.3

CCCC[N+]1(C)CCCC1.O=S(=O)([N-]S(=O)(=O)C(F)(F)F)C(F)(F)F + CO
101 kPa, frequency 0.001 MHz
Settings	electrical conductivity [S/m]
293.15 K, x1 = 0.05	0.368 ± 0.057
293.15 K, x1 = 0.26	1.77 ± 0.039
293.15 K, x1 = 0.37	2.11 ± 0.03
298.15 K, x1 = 0.26	1.93 ± 0.04
303.15 K, x1 = 0.26	2.17 ± 0.05
303.15 K, x1 = 0.42	2.61 ± 0.03
308.15 K, x1 = 0.26	2.38 ± 0.049
308.15 K, x1 = 0.47	2.85 ± 0.035
308.15 K, x1 = 0.68	1.84 ± 0.051
313.15 K, x1 = 0.32	2.79 ± 0.048
313.15 K, x1 = 0.53	2.91 ± 0.05
313.15 K, x1 = 0.68	2.08 ± 0.057
313.15 K, x1 = 0.74	1.8 ± 0.052
313.15 K, x1 = 0.84	1.29 ± 0.068
313.15 K, x1 = 1	0.488 ± 0.005
318.15 K, x1 = 0.21	2.4 ± 0.1
318.15 K, x1 = 0.63	2.55 ± 0.064
318.15 K, x1 = 0.68	2.27 ± 0.056
318.15 K, x1 = 0.79	1.7 ± 0.058
318.15 K, x1 = 0.84	1.43 ± 0.07

101 kPa
Settings	viscosity [mPa·s]
293.15 K, x1 = 0.05	1.02 ± 0.14
293.15 K, x1 = 0.26	8.31 ± 0.54
293.15 K, x1 = 0.37	12.95 ± 0.69
298.15 K, x1 = 0.26	7.2 ± 0.46
303.15 K, x1 = 0.26	6.29 ± 0.4
303.15 K, x1 = 0.42	11.11 ± 0.54
308.15 K, x1 = 0.26	5.53 ± 0.34
308.15 K, x1 = 0.47	10.87 ± 0.49
308.15 K, x1 = 0.68	16.54 ± 0.76
313.15 K, x1 = 0.32	6.15 ± 0.33
313.15 K, x1 = 0.53	10.55 ± 0.47
313.15 K, x1 = 0.68	14.3 ± 0.65
313.15 K, x1 = 0.74	16.1 ± 0.75
313.15 K, x1 = 0.84	21.3 ± 1.1
313.15 K, x1 = 1	35.7 ± 1.5
318.15 K, x1 = 0.21	3.3 ± 0.25
318.15 K, x1 = 0.63	11.22 ± 0.51
318.15 K, x1 = 0.68	12.47 ± 0.57
318.15 K, x1 = 0.79	15.95 ± 0.78
318.15 K, x1 = 0.84	18.39 ± 0.93
318.15 K, x1 = 0.95	25.2 ± 1.3

CCCC[n+]1ccn(C)c1.COP(=O)([O-])OC + CO
viscosity [mPa·s], 101 kPa
Settings	293.15 K	308.15 K	313.15 K	318.15 K
x2 = 0.404	–	68.7 ± 1	–	44.37 ± 0.55
x2 = 0.8	7.184 ± 0.084	–	4.401 ± 0.052	–

CCCC[n+]1ccn(C)c1.N[C@@H](CCC(=O)O)C(=O)[O-] + CO
101 kPa
Settings	viscosity [mPa·s]
298.15 K, x2 = 0.2002	46.1 ± 4.3
298.15 K, x2 = 0.2995	34.4 ± 3.2
298.15 K, x2 = 0.7	4.97 ± 0.46
298.15 K, x2 = 0.9	1.24 ± 0.12
303.15 K, x2 = 0.6002	9.62 ± 0.9
308.15 K, x2 = 0.6002	8.63 ± 0.8
308.15 K, x2 = 0.8001	2.83 ± 0.26
313.15 K, x2 = 0.2002	25.6 ± 2.4
313.15 K, x2 = 0.7	4.55 ± 0.42

CCCC[n+]1ccn(C)c1.[Cl-] + CO
101 kPa, frequency 0 MHz
Settings	electrical conductivity [S/m]
293.15 K, x1 = 0.007978	0.93 ± 0.24
303.15 K, x1 = 0.00449	0.66 ± 0.25
313.15 K, x1 = 0.002223	0.42 ± 0.32
313.15 K, x1 = 0.00354	0.6 ± 0.29
323.15 K, x1 = 0.00449	0.83 ± 0.31

101 kPa
Settings	electrical conductivity [S/m]	viscosity [mPa·s]
293.15 K, x2 = 0.5001	–	65 ± 11
293.15 K, x2 = 0.5458	–	40.4 ± 6.2
298.15 K, x2 = 0.7015	2.19 ± 0.04	7.5 ± 1.2
303.15 K, x2 = 0.5594	–	27.1 ± 4.2
303.15 K, x2 = 0.7001	–	6.8 ± 1.1
308.15 K, x2 = 0.8999	–	1.19 ± 0.3
308.15 K, x2 = 0.95	–	0.79 ± 0.24
